Laboratory results reported in PubChem BioAssay AID2137 (Broad Institute, 2009).
“And” between values parts separate entries of the source, which are not always exact repeats. Identical values can stand only once. Records with an inconclusive call do not appear. The source made the active and inactive calls.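 How the source made its calls: active means IC50 at most ten times the top tested dose; inconclusive means flat fit with 30 to 70% activity, or an invalid poor fit; inactive means the rest.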

Each compound was assayed against S. pyogenes M1 GAS streptokinase expression, plasminogen activation OD405 (assay: reduced streptokinase-driven plasminogen activation (OD405), dose response, streptokinase expression inhibitor project, absorbance readout, M1 GAS (AID 2137)).

Row | SMILES | IC50
1 | CN1C(=O)/C(=C\c2cccn2-c2ccc3ccccc3c2)C(=O)NC1=S | 5.42 µM
2 | O=C(c1ccc(F)cc1)n1c2ccccc2c2ccccc21 | 6.27 µM
3 | O=C(CSc1ccncc1)N1c2ccccc2Sc2ccccc21 | 83.6 µM
4 | O=C(CSc1ccc(Cl)cc1)N1c2ccccc2Sc2ccccc21 | 3.1 µM
5 | FC(F)(F)c1nc(N2CCN(c3ccccc3)CC2)nc2c1CCCCC2 | 1.73 µM
6 | COCc1cc(Sc2c(Cl)cccc2Cl)nc(-c2ccccc2)n1 | 7.59 µM
7 | O=C(c1ccccc1C(F)(F)F)n1c2ccccc2c2ccccc21 | 6.62 µM
8 | O=C(CSc1nc(-c2ccc(Cl)cc2)[nH]c(=O)n1)Nc1cccc(Cl)c1 | 3.54 µM
9 | Cc1cc(C)c2nc(-c3ccncc3)cc(C(=O)N3CCN(Cc4ccccc4Cl)CC3)c2c1 | 9.54 µM
10 | Cc1ccc(C(=O)n2c3ccccc3c3ccccc32)cc1 | 2.89 µM
11 | CC(=O)N(C)c1ccc(OCC(O)Cn2c3ccc(Cl)cc3c3cc(Cl)ccc32)cc1 (stereo not given) | 4.94 µM
12 | O=C(c1ccc(Cl)cc1)n1c2ccccc2c2ccccc21 | 18.2 µM
13 | O=C(c1ccc(OC(F)(F)F)cc1)n1c2ccccc2c2ccccc21 | 6.36 µM
14 | COc1ccc2oc(C(=O)N3CCN(C(c4ccccc4)c4ccccc4)CC3)c(C)c2c1 | 24.9 µM
15 | CCCOc1ccc(-c2nc(OC)c3ccccc3n2)cc1 | 4.03 µM
16 | CC[C@@H](C)[C@H](NC(=O)OC(C)(C)C)c1nnc(S(=O)(=O)Cc2cc(C)ccc2C)o1 | 4.15 µM
17 | Cc1cc(C)c(NC(=O)c2oc3ccccc3c2COc2ccccc2)c(C)c1 | 98.8 µM
18 | CN(C)c1ccc(C(=O)n2c3ccccc3c3ccccc32)cc1 | 4.09 µM
19 | C=CCn1c(SCC#N)nc2c(c1=O)C(C)(C)Cc1ccccc1-2 | 10.1 µM
20 | O=C(CSc1ccccc1)N1c2ccccc2Sc2ccccc21 | 9.11 µM
21 | CCCCn1c(=O)c(C(=O)NCc2ccccc2)c(O)c2ccccc21 | > 500 µM (inactive)
22 | COc1ccc(Sc2ccc(NC(=O)c3ccccc3Cl)cc2C#N)cc1 | 2.27 µM
23 | CC1CC(C)CN(c2ncc3c(n2)CC(c2ccccc2Cl)CC3=O)C1 (stereo not given) | 2.26 µM
24 | CCOC(=O)c1c(NC(=O)c2cccs2)sc(CC)c1-c1cccs1 | 21.8 µM
25 | CCN(CC)C(=S)SCC(=O)Nc1nc(-c2ccccc2)c(-c2ccccc2)o1 | 20.5 µM

Row | SMILES | IC50
26 | N#Cc1ccc(C(=O)n2c3ccccc3c3ccccc32)cc1 | 57.7 µM
27 | CC1CCN(C(=O)N2c3ccccc3Sc3ccccc32)CC1 | 15 µM
28 | CC(C)(C)N/N=C1\CC(c2ccccc2)Oc2ccccc21 (stereo not given) | 7.95 µM
29 | COc1cccc(C(=O)n2c3ccccc3c3ccccc32)c1 | 13.7 µM
30 | Cc1cc(C(=O)OC(C(=O)Nc2cccc(C(F)(F)F)c2)c2ccccc2)c(C)o1 (stereo not given) | 7.09 µM
31 | COc1ccc(Nc2ncnc3scc(-c4ccc(OC)cc4)c23)cc1 | 5.7 µM
32 | CCC1CCCCN1S(=O)(=O)c1ccc(NC(=O)c2nc(S(C)(=O)=O)ncc2Cl)cc1 (stereo not given) | 1.17 µM
33 | O=C(CSc1cccs1)N1c2ccccc2Sc2ccccc21 | 33.8 µM
34 | FC(F)(F)c1cccc(-c2cc3ccccc3nc2N2CCCC2)c1 | 3.94 µM
35 | FC(F)(F)c1cc(-c2ccco2)nc(NCc2ccc(Cl)cc2)n1 | > 500 µM (inactive)
36 | COc1ccc(SCC(=O)N2c3ccccc3Sc3ccccc32)cc1 | 6.54 µM
37 | O=C(NC(=S)Nc1ccccc1N1CCCC1)c1ccccc1Br | 23.6 µM
38 | Cc1ccc(C(=O)N2c3ccccc3Sc3ccccc32)cc1 | 46.5 µM
39 | CC(C)c1ccc(NC(=O)c2cc(S(=O)(=O)NCC3COc4ccccc4O3)ccc2F)cc1 (stereo not given) | 3.65 µM
40 | Clc1cccc(Cl)c1CSc1nnc(/C=C/c2ccccc2)o1 | 4.39 µM
41 | Cn1c(=O)c2c(nc(SCc3ccccc3)n2Cc2ccc(Cl)cc2)n(C)c1=O | 5.9 µM
42 | O=C(Nc1cc(S(=O)(=O)Nc2ccc(Cl)cc2)ccc1N1CCCCC1)c1ccc(F)cc1 | 4 µM
43 | Cc1noc(C)c1CSc1nc2sc(C)c(C)c2c(=O)n1C1CCCC1 | 3.13 µM
44 | COC(=O)c1ccccc1NC(=O)c1nc(S(=O)(=O)Cc2ccccc2)ncc1Cl | 3.37 µM
45 | Cc1cc2oc(=O)cc(CN(C)Cc3ccccc3)c2cc1C(C)C | 9.18 µM
46 | Cc1ccc(C(=O)C(c2ccccc2)N2Cc3ccccc3C2=N)cc1 (stereo not given) | 8.38 µM
47 | Cc1ccc(/C=C/c2ccc(=O)n(Cc3ccccc3Cl)n2)cc1 | 14.2 µM
48 | COc1ccc(-c2nc(-c3cccs3)c(-c3cccs3)[nH]2)cc1OC | 5.93 µM
49 | COc1ccc(-c2csc3ncnc(N4CCN(c5ccccc5Cl)CC4)c23)cc1 | 6.67 µM
50 | Cc1ccc(SCC(=O)N2c3ccccc3Sc3ccccc32)cc1 | 7.6 µM and 5.6 µM
